Laboratory results published in patent US9351974B2, “Substituted pteridinones for the treatment of cancer” (OSI Pharmaceuticals, LLC, priority 2011, dated 2016).

Each molecule was assayed against T1, His-tagged full-length RSK2 (RPS6KA3) (Homo sapiens, UniProt P51812) (assay: RSK2 Omnia Assay for compound IC50 determination). Conditions: ATP 15 μM, n=2, read-out: Mean RSK2 Biochem IC50.
T1 construct: His-tagged full-length RSK2 (RPS6KA3, Invitrogen PV3323); His; purchased Invitrogen PV3323
Type: biochemical
Protocol: RSK1 & RSK2 Omnia Assay Protocol for Compound IC50 Determination
The Omnia Assay (Invitrogen) has been optimized for His-tagged full length RSK1 (RPS6KA1, Millipore 14-509) and for His-tagged full-length RSK2 (RPS6KA3, Invitrogen PV3323). In this assay system, Omnia ST Peptide 6 (Invitrogen KNZ1061) functions as a substrate for RSK1 or RSK2. Phosphorylation of this SOX-containing peptide results in an increase in fluorescence at 485 nm upon excitation at 360 nm.
Assays are carried out in 384-well OptiPlates (Perkin Elmer 6007290) in a total volume of 20 μL containing RSK1 ([…]) or RSK2 ([…]), Omnia ST Peptide 6 (5 μM), ATP (15 μM, Km=16.3 μM), and test compound (variable) in RSK assay buffer (50 mM HEPES, pH 7.5, 10 mM MgCl2, 0.01% Tween-20, 1% glycerol, 1 mM DTT, 1 mM EGTA, 0.01% BSA) with 1% DMSO.
IC50s for test compounds are typically determined using an 11-point three-fold serial dilution with a final assay concentration ranging either from 170 μM to […] or from 17 μM to […]. All compound concentrations are assayed in duplicate. Initial compound dilutions are prepared at 100× concentration in 100% DMSO from a 10 mM stock solution. Compounds are further diluted 1:25 in assay buffer resulting in a 4× concentrated solution.
To run the assay 5 μL of the above 4× concentrated compound solution (or 4% DMSO for positive controls) is added to the assay plate followed by 5 μL of a solution containing peptide (20 μM) and ATP (60 μM) in assay buffer. The reaction is initiated by the addition of 10 μL of RSK1 ([…]) or RSK2 ([…]) in assay buffer, or assay buffer alone for negative controls. The increase in fluorescence due to peptide phosphorylation is monitored continuously as a function of time using a Spectramax M5 plate reader (Molecular Devices) equipped with SoftMax Pro software.
The slopes from the linear portion of progress curves are used to determine IC50 values by non-linear curve-fitting to a four-parameter equation using GraphPad Prism (GraphPad Software, Inc.) or XLFit (IDBS). IC50's are determined in duplicate (n=2) and Ki values are calculated from IC50 values using the Cheng-Prusoff equation assuming a competitive mode of inhibition.

T1 sequence (P51812 whole entry): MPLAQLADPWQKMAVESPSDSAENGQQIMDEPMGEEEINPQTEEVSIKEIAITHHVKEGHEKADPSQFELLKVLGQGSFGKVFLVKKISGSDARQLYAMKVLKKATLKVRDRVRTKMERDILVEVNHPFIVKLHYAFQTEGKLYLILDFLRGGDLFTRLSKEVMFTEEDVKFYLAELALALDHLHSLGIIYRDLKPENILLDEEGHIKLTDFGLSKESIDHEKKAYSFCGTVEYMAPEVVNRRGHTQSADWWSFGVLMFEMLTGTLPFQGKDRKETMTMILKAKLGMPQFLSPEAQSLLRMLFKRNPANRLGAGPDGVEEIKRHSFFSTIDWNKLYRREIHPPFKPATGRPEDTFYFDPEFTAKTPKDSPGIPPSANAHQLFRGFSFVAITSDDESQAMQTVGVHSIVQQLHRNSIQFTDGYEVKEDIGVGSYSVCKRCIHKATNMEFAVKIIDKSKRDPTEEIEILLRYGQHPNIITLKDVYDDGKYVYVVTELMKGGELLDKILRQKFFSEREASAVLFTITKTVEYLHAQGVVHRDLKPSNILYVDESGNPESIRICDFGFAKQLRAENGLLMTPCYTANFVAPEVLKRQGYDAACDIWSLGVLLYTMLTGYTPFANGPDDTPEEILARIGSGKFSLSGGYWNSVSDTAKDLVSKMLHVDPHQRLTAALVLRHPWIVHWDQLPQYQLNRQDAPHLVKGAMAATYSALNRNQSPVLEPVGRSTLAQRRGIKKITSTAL

| IC50 [nM] | Compound |
| --- | --- |
| ≤ 100 | COc1ccc(N2C(=O)[C@@H](C)N([C@H]3CC[C@H](OC)CC3)c3nc(Nc4cc(F)c5[nH]ncc5c4)ncc32)cc1OC [compound 225, (7R)-5-(3,4-dimethoxyphenyl)-2-[(7-fluoro-1H-indazol-5-yl)amino]-8-(trans-4-methoxycyclohexyl)-7-methyl-7,8-dihydropteridin-6(5H)-one] |
| ≤ 100 | C[C@@H]1C(=O)N(c2cccc(C#N)c2)c2cnc(Nc3cc(F)c4c(c3)CC(=O)N4)nc2N1C1CCCCC1 [compound 145, 3-[(7R)-8-cyclohexyl-2-[(7-fluoro-2-oxo-2,3-dihydro-1H-indol-5-yl)amino]-7-methyl-6-oxo-7,8-dihydropteridin-5(6H)-yl]benzonitrile] |
| ≤ 100 | C[C@@H]1C(=O)N(c2cccc(C#N)c2)c2cnc(Nc3cc(F)c4[nH]c(=O)oc4c3)nc2N1C1CCC(F)(F)CC1 [compound 277, 3-[(7R)-8-(4,4-difluorocyclohexyl)-2-[(4-fluoro-2-oxo-2,3-dihydro-1,3-benzoxazol-6-yl)amino]-7-methyl-6-oxo-7,8-dihydropteridin-5(6H)-yl]benzonitrile] |
| ≤ 100 | C[C@@H]1C(=O)N(c2ccc(S(C)(=O)=O)cc2)c2cnc(Nc3ccc4[nH]ncc4c3)nc2N1C1CCCCC1 [Example 40, (7R)-8-cyclohexyl-2-(1H-indazol-5-ylamino)-7-methyl-5-[4-(methylsulfonyl)phenyl]-7,8-dihydropteridin-6(5H)-one] |
| 100 to 1000 | COc1cc(Nc2ncc3c(n2)N(C2CCCCC2)[C@H](C)C(=O)N3c2cccc(C#N)c2)cc2cn[nH]c12 [compound 123, 3-[(7R)-8-cyclohexyl-2-[(7-methoxy-1H-indazol-5-yl)amino]-7-methyl-6-oxo-7,8-dihydropteridin-5(6H)-yl]benzonitrile] |
| ≤ 100 | C[C@@H]1C(=O)N(c2ccc(F)c(F)c2)c2cnc(Nc3ccc4[nH]ncc4c3)nc2N1C1CCCCC1 [Example 49, (7R)-8-cyclohexyl-5-(3,4-difluorophenyl)-2-(1H-indazol-5-ylamino)-7-methyl-7,8-dihydropteridin-6(5H)-one] |
| 100 to 1000 | C[C@@H]1C(=O)N(c2cccc(C#N)c2)c2cnc(Nc3ccc(F)c4[nH]ncc34)nc2N1C1CCCCC1 [compound 107, 3-[(7R)-8-cyclohexyl-2-[(7-fluoro-1H-indazol-4-yl)amino]-7-methyl-6-oxo-7,8-dihydropteridin-5(6H)-yl]benzonitrile] |
| > 1000 | CC(C)CCN1c2nc(Nc3ccc(CS(=O)(=O)N(C)C)cc3)ncc2N(c2ccccc2)C(=O)C1C (stereo not shown) [Example 8, N,N-dimethyl-1-(4-{[7-methyl-8-(3-methylbutyl)-6-oxo-5-phenyl-5,6,7,8-tetrahydropteridin-2-yl]amino}phenyl)methanesulfonamide] |
| ≤ 100 | N#Cc1cccc(N2C(=O)[C@@H](CF)N(C3CCCC3)c3nc(Nc4cc(F)c5[nH]ncc5c4)ncc32)c1 [Example 221, 3-[(7S)-8-cyclopentyl-2-[(7-fluoro-1H-indazol-5-yl)amino]-7-(fluoromethyl)-6-oxo-7,8-dihydropteridin-5(6H)-yl]benzonitrile] |
| ≤ 100 | C[C@@H]1C(=O)N(c2ccc(N3CCN(C)CC3)c(C#N)c2)c2cnc(Nc3cnc4[nH]ncc4c3)nc2N1[C@H]1CC[C@H](C)CC1 [compound 252, 5-[(7R)-7-methyl-8-(trans-4-methylcyclohexyl)-6-oxo-2-(1H-pyrazolo[3,4-b]pyridin-5-ylamino)-7,8-dihydropteridin-5(6H)-yl]-2-(4-methylpiperazin-1-yl)benzonitrile] |
| ≤ 100 | C[C@@H]1C(=O)N(c2cccc(C#N)c2)c2cnc(Nc3cc(F)c4[nH]ncc4c3)nc2N1C1CCC(F)(F)CC1 [Example 260, 3-[(7R)-8-(4,4-difluorocyclohexyl)-2-[(7-fluoro-1H-indazol-5-yl)amino]-7-methyl-6-oxo-7,8-dihydropteridin-5(6H)-yl]benzonitrile] |
| ≤ 100 | COc1ccc(N2C(=O)[C@@H](C)N([C@H]3CC[C@H](C)CC3)c3nc(Nc4ccc5[nH]c(=O)oc5c4)ncc32)cc1C#N [compound 244, 2-methoxy-5-[(7R)-7-methyl-8-(trans-4-methylcyclohexyl)-6-oxo-2-[(2-oxo-2,3-dihydro-1,3-benzoxazol-6-yl)amino]-7,8-dihydropteridin-5(6H)-yl]benzonitrile] |
| ≤ 100 | C[C@@H]1C(=O)N(c2ccc(C(=O)N(C)C)cc2)c2cnc(Nc3ccc4[nH]ncc4c3)nc2N1C1CCCCC1 [Example 27, 4-[(7R)-8-cyclohexyl-2-(1H-indazol-5-ylamino)-7-methyl-6-oxo-7,8-dihydropteridin-5(6H)-yl]-N,N-dimethylbenzamide] |
| 100 to 1000 | CC1C(=O)N(c2ccccc2)c2cnc(Nc3ccc4c(c3)CC(=O)N4)nc2N1c1ccccc1 (stereo not shown) [compound 179] |
| ≤ 100 | C[C@@H]1C(=O)N(c2ccc3cccnc3c2)c2cnc(Nc3cc(F)c4[nH]ncc4c3)nc2N1C1CCCCC1 [compound 133, (7R)-8-cyclohexyl-2-[(7-fluoro-1H-indazol-5-yl)amino]-7-methyl-5-(quinolin-7-yl)-7,8-dihydropteridin-6(5H)-one] |
| ≤ 100 | C[C@@H]1C(=O)N(c2ccccc2)c2cnc(Nc3ccc4[nH]ncc4c3)nc2N1CC1CCCC1 [Example 75, (7R)-8-(cyclopentylmethyl)-2-(1H-indazol-5-ylamino)-7-methyl-5-phenyl-7,8-dihydropteridin-6(5H)-one] |
| ≤ 100 | COc1ccc(N2C(=O)[C@@H](C)N(C3CCOCC3)c3nc(Nc4cc(F)c5[nH]ncc5c4)ncc32)cc1C#N [compound 190, 5-[(7R)-2-[(7-fluoro-1H-indazol-5-yl)amino]-7-methyl-6-oxo-8-(tetrahydro-2H-pyran-4-yl)-7,8-dihydropteridin-5(6H)-yl]-2-methoxybenzonitrile] |
| ≤ 100 | C[C@@H]1C(=O)N(c2cccc(C#N)c2)c2cnc(Nc3ccc4[nH]nc(F)c4c3F)nc2N1C1CCCCC1 [compound 144, 3-[(7R)-8-cyclohexyl-2-[(3,4-difluoro-1H-indazol-5-yl)amino]-7-methyl-6-oxo-7,8-dihydropteridin-5(6H)-yl]benzonitrile] |
| ≤ 100 | CC(C)CN1c2nc(Nc3ccc4[nH]ncc4c3)ncc2N(c2ccccc2)C(=O)[C@H]1C [Example 79, (7R)-2-(1H-indazol-5-ylamino)-7-methyl-8-(2-methylpropyl)-5-phenyl-7,8-dihydropteridin-6(5H)-one] |
| ≤ 100 | COc1ccc(N2C(=O)[C@@H](C)N(C3CCCCC3)c3nc(Nc4ccc5[nH]c(=O)oc5c4)ncc32)cc1C#N [compound 165, 5-[(7R)-8-cyclohexyl-7-methyl-6-oxo-2-[(2-oxo-2,3-dihydro-1,3-benzoxazol-6-yl)amino]-7,8-dihydropteridin-5(6H)-yl]-2-methoxybenzonitrile] |
| > 1000 | C[C@@H]1C(=O)N(c2cccc(C#N)c2)c2cnc(Nc3ccc4[nH]ncc4c3Cl)nc2N1C1CCCCC1 [compound 101, 3-[(7R)-2-[(4-chloro-1H-indazol-5-yl)amino]-8-cyclohexyl-7-methyl-6-oxo-7,8-dihydropteridin-5(6H)-yl]benzonitrile] |
| ≤ 100 | C[C@@H]1C(=O)N(c2cccnc2)c2cnc(Nc3cc(F)c4[nH]ncc4c3)nc2N1C1CCC(F)(F)CC1 [compound 264, (7R)-8-(4,4-difluorocyclohexyl)-2-[(7-fluoro-1H-indazol-5-yl)amino]-7-methyl-5-(pyridin-3-yl)-7,8-dihydropteridin-6(5H)-one] |
